Consider 2 compounds from patent US20100168228A1, “NOVEL CHEMOTHERAPEUTIC AGENTS AGAINST INFLAMMATION AND CANCER” (RELIANCE LIFE SCIENCES PVT. LTD., priority 2006, published 2010).

The subject of one assay is bax. The assay can be described thus: bax mRNA, semi-quantitative RT-PCR, Jurkat. Conditions: increasing concentrations. Format: cell-based, human. Here is the method: FIG. 18: Effects of compound 27 on p53, Bax, bcl-2 mRNA levels in Jurkat cells. Expression of human p53, bax-α, bcl-2, was assayed by semi quantitative RT-PCR analysis with GAPDH as internal control. Cells were treated for 24 h with various doses of the compound (0, 50, 100 and 500 nM), then total RNA was extracted and submitted to RT-PCR.
RNA extraction: Total RNA was isolated using the standard TRIzol method (Gibco BRL). Briefly, 3×10^6 cells were treated with different concentrations of the compounds as indicated in the legends to Figures and after harvesting the cell pellet was resuspended in 1 ml of TRIzol with repeated pipetting. The homogenized sample was incubated at RT for 5 min to permit complete dissociation of the nucleoprotein complexes. […] of chloroform was added and the tubes were shaken vigorously for 15 sec by hand and then incubated at RT for 3 mins. The samples were then centrifuged at 10,000 RPM for 15 mins at 4° C. The aqueous phase was transferred to a fresh tube and 500 μl of Isopropyl alcohol was added, followed by incubation at RT for 10 mins. […]
Semi-quantitative reverse transcriptase (RT)-PCR: Changes in gene expression were verified by semi-quantitative RT-PCR using GAPDH as an internal normalization standard. 1 μg of total RNA (quantified by spectrophotometer) was used to reverse transcribe into cDNA. […]

The test system of a further assay is COX-2. The assay can be described thus: COX-2 protein expression (ELISA). Format: cell-based. The procedure: FIG. 6: Effect of CAMVE on TNF or LPS induced COX-2 expression. Cells were pretreated with indicated concentrations of CAMVE for 3 h and then stimulated with either TNF (0.1 nM) or SA-LPS (100 ng/ml) for 12 h. After harvesting the treated cells, the cellular lysates were checked for COX-2 protein expression by an enzyme immunoassay as described in the “Materials and Methods”.
Quantitative detection of Cox 2 protein expression by activated cells was done by an enzyme-linked immunosorbent sandwich assay using Zymed COX-2 ELISA kit. 1×10^7 cells were treated with different concentrations of CAMVE and stimulator and incubated at 37° C. for 12 hrs. […] The protein concentrations of the supernatants were measured by Bradford assay (Anal. Biochem. 72:248-254 (1976). 200 μg/100 μl of the protein was assayed per sample according to the kit protocol. Briefly, 100 μl of the sample and the standard were put in the pre antibody coated wells and incubated at 1 h at 37° C. After three washes 100 μl of the HRP conjugated antibody was added and incubated for 30 m is at 4° C. After washing, […] of the TMB substrate was added and incubated for 30 min at room temperature in dark. The reaction was stopped and the absorbance was read at 450 nm.
For orientation: In an ELISA, binding on a coated surface is turned into a signal by an enzyme label.

For `COc1cc([C@@H]2Oc3c(OC)cc(/C=C/C(=O)O)cc3[C@H]2C(=O)O)ccc1O` [compound 27, 5-[(E)-2-carboxyvinyl]-2β-(4-hydroxy-3-methoxyphenyl)-7-methoxy-2,3-dihydro-1-benzofuran-3α-carboxylic acid], the “pro-apoptotic bax mRNA levels” value with bax is on record as “increased the pro-apoptotic bax mRNA levels”.

For `COC(=O)c1ccc(OC(=O)/C=C/c2ccc(O)c(O)c2)c(OC)c1` [compound 1, Methyl 4-{[(2E)-3-(3,4-dihydroxyphenyl)prop-2-enoyl]oxy}-3-methoxybenzoate], the “COX-2 protein induction by compound alone” value with COX-2 (CAMVE alone) is listed as “did not show any induction of COX 2 protein”. For the same compound, the “TNF or LPS induced COX-2 protein expression” value in the assay with COX-2 (pretreated 3 h, TNF 0.1 nM or SA-LPS 100 ng/ml 12 h) is on record as “decreased with increasing concentration of CAMVE treatment”.
